Measured values taken from patent US12599617B2, “Methods of treating head and neck cancers with hemp extract” (Ecofibre USA Inc., priority 2021, dated 2026).

Assays:
[1] = tested on: human head and neck cancer organoids; assay: Head and neck cancer organoid viability, cannabis extracts and paclitaxel alone or combined
[2] = cited from earlier work
[3] = tested on: grade 2 endometrial cancer organoids; assay: Grade 2 endometrial cancer organoid viability, carboplatin alone or with cannabis extract; type: cell-based, human; conditions: carboplatin alone, 50 and 100 μm/mL
[4] = tested on: patient derived organoids; assay: Response / % cell death of patient derived organoids; type: cell-based, human; conditions: for % Cell Death: patient derived organoids treated with the drug
Text: A few of the above materials, as well as additional drugs were tried for response to patient derived organoids in Table 4, below, which details the % of cell death of the patient derived organoids, when treated with the relevant drug product.

[5] = tested on: patient derived endometrial cancer cells; assay: Patient-derived xenograft (PDX) mouse tumor volume; type: in vivo, mice; conditions: paclitaxel only, 10 mg/kg, 21 days
Text: All treatment group mice were kept alive for up to 10 weeks after drug injection or until the tumor volume grows bigger than 2500 mm^3.

P-glycoprotein = P-glycoprotein (Homo sapiens, UniProt P08183); conditions: in vitro study; cited from earlier work
CYP2C19 enzymes = CYP2C19 enzymes (Homo sapiens, UniProt P33261); conditions: in vitro; cited from earlier work
Chain of CYP2C19 enzymes (P33261 whole entry): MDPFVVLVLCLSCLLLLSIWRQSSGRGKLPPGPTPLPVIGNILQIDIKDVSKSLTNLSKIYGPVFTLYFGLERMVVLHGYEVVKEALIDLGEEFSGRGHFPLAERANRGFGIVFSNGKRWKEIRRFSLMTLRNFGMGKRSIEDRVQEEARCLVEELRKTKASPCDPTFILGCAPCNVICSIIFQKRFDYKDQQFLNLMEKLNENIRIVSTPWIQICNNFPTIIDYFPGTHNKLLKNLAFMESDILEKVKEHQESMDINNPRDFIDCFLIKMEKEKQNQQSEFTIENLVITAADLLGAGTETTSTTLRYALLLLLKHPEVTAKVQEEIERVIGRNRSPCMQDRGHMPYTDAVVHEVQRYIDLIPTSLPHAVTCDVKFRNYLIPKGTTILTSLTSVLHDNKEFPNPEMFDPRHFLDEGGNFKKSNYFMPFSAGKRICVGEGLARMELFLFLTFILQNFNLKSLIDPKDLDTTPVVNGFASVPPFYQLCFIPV

Chain of P-glycoprotein (P08183 whole entry): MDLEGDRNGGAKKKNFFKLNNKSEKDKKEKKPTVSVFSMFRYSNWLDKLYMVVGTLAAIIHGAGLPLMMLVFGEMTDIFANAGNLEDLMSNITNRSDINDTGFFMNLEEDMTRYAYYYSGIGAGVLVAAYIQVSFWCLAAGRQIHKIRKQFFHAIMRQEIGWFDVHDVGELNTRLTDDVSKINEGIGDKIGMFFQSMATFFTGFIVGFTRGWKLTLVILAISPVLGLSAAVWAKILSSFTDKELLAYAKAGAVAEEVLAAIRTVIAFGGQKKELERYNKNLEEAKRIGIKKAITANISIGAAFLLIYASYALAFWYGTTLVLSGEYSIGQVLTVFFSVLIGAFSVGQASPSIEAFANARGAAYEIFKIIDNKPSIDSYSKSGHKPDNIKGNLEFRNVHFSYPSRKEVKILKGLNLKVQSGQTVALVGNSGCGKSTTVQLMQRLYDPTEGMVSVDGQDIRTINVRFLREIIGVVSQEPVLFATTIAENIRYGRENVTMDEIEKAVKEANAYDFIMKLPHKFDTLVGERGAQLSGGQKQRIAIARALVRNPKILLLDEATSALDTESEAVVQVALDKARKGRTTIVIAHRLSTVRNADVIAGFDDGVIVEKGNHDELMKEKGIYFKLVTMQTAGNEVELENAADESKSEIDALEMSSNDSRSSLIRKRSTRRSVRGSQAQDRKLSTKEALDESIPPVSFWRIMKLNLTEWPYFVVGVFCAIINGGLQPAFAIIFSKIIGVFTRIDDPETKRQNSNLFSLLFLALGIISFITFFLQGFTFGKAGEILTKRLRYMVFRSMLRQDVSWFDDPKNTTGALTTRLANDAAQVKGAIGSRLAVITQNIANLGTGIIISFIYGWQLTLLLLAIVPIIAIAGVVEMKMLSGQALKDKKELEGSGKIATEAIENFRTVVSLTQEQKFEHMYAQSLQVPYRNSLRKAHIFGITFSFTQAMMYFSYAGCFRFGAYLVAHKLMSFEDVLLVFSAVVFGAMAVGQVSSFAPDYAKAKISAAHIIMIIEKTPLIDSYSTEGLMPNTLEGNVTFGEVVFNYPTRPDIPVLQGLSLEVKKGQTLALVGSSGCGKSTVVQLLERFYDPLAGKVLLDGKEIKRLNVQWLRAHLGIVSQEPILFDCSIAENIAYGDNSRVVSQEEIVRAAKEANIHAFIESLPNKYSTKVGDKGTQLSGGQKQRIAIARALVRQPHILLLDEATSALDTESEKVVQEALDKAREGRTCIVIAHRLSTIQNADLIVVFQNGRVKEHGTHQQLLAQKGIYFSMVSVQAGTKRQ

Compound | % Cell Death [4] [%] | further results
C=C(C)[C@@H]1CCC(C)=C[C@H]1c1c(O)cc(CCCCC)cc1O [CBD isolate, cannabidiol] | – | percent viability of head and neck cancer organoids ([1]; 10 μg/mL cannabis extract): effective in reducing the viability of the head and neck cancer organoids significantly
CCCCCc1cc(O)c2c(c1)OC(C)(C)[C@@H]1CCC(C)=C[C@@H]21 [THC, Δ-9-tetrahydrocannabinol] | – | onset to reach peak concentration ([2]; oral THC formulations): ~120 min
N.N.O=C([O-])C1(C(=O)[O-])CCC1.[Pt+2] [Carboplatin] | 30 | viability [3]: about 50%
N.N.[Cl][Pt][Cl] [Cisplatin] | 36 | –
CC(=O)O[C@H]1C(=O)[C@@]2(C)[C@H]([C@H](OC(=O)c3ccccc3)[C@]3(O)C[C@H](OC(=O)[C@H](O)[C@@H](NC(=O)c4ccccc4)c4ccccc4)C(C)=C1C3(C)C)[C@]1(OC(C)=O)CO[C@@H]1C[C@@H]2O [Paclitaxel] | 39 | organoid viability ([1]; human, 14 days, 16 nm/mL): around 60%; organoid viability ([1]; paclitaxel alone, 4 nm/mL): virtually no impact on the organoid viability; effect on tumor volume [5]: in essence ineffective after an initial reduction at day 10
N[C@@H](Cc1ccc(N(CCCl)CCCl)cc1)C(=O)O [Melphalan] | 40 | –
COc1cccc2c1C(=O)c1c(O)c3c(c(O)c1C2=O)C[C@@](O)(C(=O)CO)C[C@@H]3O[C@H]1C[C@H](N)[C@H](O)[C@H](C)O1 [Doxorubicin] | 39 | –
CCC1=C[C@@H]2CN(C1)Cc1c([nH]c3ccccc13)[C@@](C(=O)OC)(c1cc3c(cc1OC)N(C)[C@H]1[C@@](O)(C(=O)OC)[C@H](OC(C)=O)[C@]4(CC)C=CCN5CC[C@]31[C@@H]54)C2 [Vinorelbine] | 45 | –
O=P1(N(CCCl)CCCl)NCCCO1 (stereo not drawn) [Cyclosphosphamide] | 32 | –
CC[C@]1(O)C[C@@H]2CN(CCc3c([nH]c4ccccc34)[C@@](C(=O)OC)(c3cc4c(cc3OC)N(C)[C@H]3[C@@](O)(C(=O)OC)[C@H](OC(C)=O)[C@]5(CC)C=CCN6CC[C@]43[C@@H]65)C2)C1 [Vinblastine] | 38 | –
CO[C@H]1C(=O)[C@]2(C)[C@@H](OC)C[C@H]3OC[C@@]3(OC(C)=O)[C@H]2[C@H](OC(=O)c2ccccc2)[C@]2(O)C[C@H](OC(=O)[C@H](O)[C@@H](NC(=O)OC(C)(C)C)c3ccccc3)C(C)=C1C2(C)C [Cabazitaxel] | 37 | –
Bleomycin | 53 | –
C=C(C)[C@@H]1CCC(C)=C[C@H]1c1c(O)cc(CCCCC)cc1O [CBD, cannabidiol] | – | organoid response ([4]; organoid of the chemoresistant endometrial cancer patient): significant response; effect on peak plasma concentrations of CBD ([2]; coadministration of rifampicin (a CYP3A4 inducer)): significantly reduced peak plasma concentrations; effect on peak plasma drug concentrations ([2]; coadministration of the CYP3A4 inhibitor ketoconazole): nearly doubled peak plasma drug concentrations; inhibition of P-glycoprotein-mediated drug transport (P-glycoprotein): significantly inhibits P-glycoprotein-mediated drug transport; inhibition of CYP2C19 (CYP2C19 enzymes): potent inhibitor of CYP2C19 enzymes
CN(C)/N=N/c1[nH]cnc1C(N)=O [Dacarbazine] | 32 | –
COc1cc2c(cc1O)CCN[C@]21CS[C@@H]2c3c(OC(C)=O)c(C)c4c(c3[C@H](COC1=O)N1[C@@H]2[C@H]2c3c(cc(C)c(OC)c3O)C[C@@H]([C@@H]1O)N2C)OCO4 [Trabectedine] | 32 | –
O=C1c2c(O)ccc(O)c2C(=O)c2c(NCCNCCO)ccc(NCCNCCO)c21 [Mitoxantrone] | 50 | –
Nc1ccn([C@@H]2O[C@H](CO)[C@@H](O)C2(F)F)c(=O)n1 [Gemcitabine] | 56 | –
C=C(C)[C@@H]1CCC(C)=C[C@H]1c1c(O)cc(CCCCC)c(C(=O)O)c1O [CBDA, cannabidiolic acid] | – | percent viability of head and neck cancer organoids ([1]; at least 15 μg/mL CBDA): below 10%
COc1cc([C@@H]2c3cc4c(cc3[C@@H](O[C@@H]3O[C@@H]5CO[C@@H](C)O[C@H]5[C@H](O)[C@H]3O)[C@H]3COC(=O)[C@H]23)OCO4)cc(OC)c1O [Etoposide] | 33 | –
CCc1c2c(nc3ccc(OC(=O)N4CCC(N5CCCCC5)CC4)cc13)-c1cc3c(c(=O)n1C2)COC(=O)[C@]3(O)CC [Irinotecan] | 51 | –
Cn1nnc2c(C(N)=O)ncn2c1=O [Temozolomide] | 40 | –
5-Fluorouaracil/Capecitabine | 61 | –
